# Measurements as given in publication PMC9696794, “Synthesis and Antimicrobial Activity of Short Analogues of the Marine Antimicrobial Peptide Turgencin A: Effects of SAR Optimizations, Cys-Cys Cyclization and Lipopeptide Modifications” (International Journal of Molecular Sciences, 2022).
# Where a SMILES comes first, the peptide text is derived from it. Bridges are numbered along the chain shown (N, C = ends). The star is where a group is joined. Decanoyl = CCCCCCCCCC(=O)*; Octanoyl = CCCCCCCC(=O)*
# Columns and labels:
# [1] = tested on: Rhodotorula sp. (Rh); assay: microbe, parasite or virus in culture; format: cell-based; details: 48 h
# Method in brief: (§1)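 Overnight cultures in potato dextrose broth with 2% glucose at 25–30 °C were diluted to approx. 4 × 10^5 spores/mL and mixed 1:1 with two-fold peptide dilutions plated at 256 to 1 µg/mL. After 48 h at room temperature, OD600 was read. MIC was the lowest concentration giving OD below 10% of the growth control, in triplicate.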
# [2] = tested on: human red blood cells (RBC); assay: Haemolytic activity assay; format: cell-based; details: for Selectivity index (SI) G- / Selectivity index (SI) G+ / Selectivity index (SI) Fungi: Table S3, highest tested concentration used where EC50 above it; for Selectivity index (SI) G-: EC50/GM of Gram-negative strains; for Selectivity index (SI) G+: EC50/GM of Gram-positive strains; for Selectivity index (SI) Fungi: EC50/GM of fungi; for SI (selectivity index = EC50/GM): haemolytic EC50 over GM of MIC against all bacterial strains, Table 1; for RBC Tox. (EC50), haemolytic activity: human RBC, 1 h, 37 °C, concentration giving 50% haemolysis
# Method in brief: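 Washed human erythrocytes (1% hematocrit final) incubated 1 h at 37 °C with agitation with lipopeptides at 500–3.9 μM in PBS (≤1% DMSO), duplicates. Haemoglobin release read at 545 nm relative to 0.1% Triton X-100; EC50 is 50% haemolysis, averaged from three experiments.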
# [3] = tested on: Gram-positive bacterial strains; details: Table S3; MIC >256 set to 256
# Method in brief: (§2)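 Cultures grown in Mueller–Hinton broth were adjusted by OD600 to 2.5–3 × 10^4 CFU/mL and mixed with two-fold peptide dilutions from 256 to 1 µg/mL. Plates were incubated at 35 °C with OD595 monitored every hour for 24 h.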
# [4] = tested on: all bacterial strains; assay: Antibacterial MIC assay, all bacterial strains together (range or geometric mean); format: cell-based; details: for GM (geometric mean of the MIC values against all bacterial strains): Table 1, six bacterial strains; for GM of MIC Tot. bact.: Table S3, all bacterial test strains, MIC >256 set to 256
# Method in brief: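 Broth microdilution in Mueller–Hinton broth against B. subtilis, C. glutamicum, S. aureus, S. epidermidis RP62A, E. coli and P. aeruginosa; inoculum 2.5–3 × 10^4 CFU/mL, 35 °C, OD595 read hourly for 24 h. MIC: lowest peptide concentration giving OD below 10% of growth control; geometric mean across strains, triplicate.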
# [5] = tested on: A. pullulans (Ap); assay: microbe, parasite or virus in culture; format: cell-based, Aurobasidium pollulans; details: 48 h
# Method in brief: as §1
# [6] = tested on: C. albicans (Ca, ATCC 10231); assay: microbe, parasite or virus in culture; format: cell-based, Candida albicans; details: ATCC 10231, 48 h
# Method in brief: as §1
# [7] = tested on: fungi (A. pullulans, C. albicans, Rhodotorula sp.); assay: Antifungal MIC assay, all fungi together (range or geometric mean); format: cell-based; details: Table S3; MIC >128 set to 128
# Method in brief: as §1
# [8] = tested on: E. coli NR698 (outer membrane permeable mutant, imp4213); assay: microbe, parasite or virus in culture; details: MC4100 NR698 imp4213, deficient outer membrane
# Experimental: (§3) All cyclic and linear peptides were screened for antibacterial activity against four Gram-positive strains: B. subtilis (Bs, ATCC 23857), C. glutamicum (Cg, ATCC 13032), S. aureus (Sa, ATCC 9144) and S. epidermidis RP62A (Se, ATCC 35984), and two Gram-negative strains: E. coli (Ec, ATCC 25922) and P. aeruginosa (Pa, ATCC 27853). The activity was assessed using a broth microdilution assay according to a modified CLSI-based method. Briefly, overnight bacterial cultures were grown in Mueller–Hinton (MH) broth medium (Difco Laboratories, Detroit, MI, USA) for 2 h at room temperature. The optical density (OD600) was measured, and the bacterial suspensions were adjusted to 2.5–3 × 10^4 CFU/mL in MH medium. The bacterial suspension (50 µL) was distributed in 96-well plates (Nunc, Roskilde, Denmark) preloaded with two-fold dilution series (256 to 1 µg/mL) of peptide solutions (50 µL), giving a final well volume of 100 µL. The microplates were incubated in an EnVision 2103 microplate reader (PerkinElmer, Llantrisant, UK) at 35 °C, with OD595 recorded every hour for 24 h. MIC was defined as the lowest concentration of peptides showing an optical density less than 10% of the negative (growth) control, consisting of bacterial suspension and water. Polymyxin B sulfate (Sigma-Aldrich, St. Louis, MO, USA) and chlorhexidine acetate (CHX, Fresenius Kabi, Halden, Norway), both with concentrations ranging from 12.5 to 0.09 μg/mL, served as positive (growth inhibition) controls. All peptides were tested in triplicate.
# (§4) MIC values were determined for all cyclic peptides against two E. coli strains: wild type (WT) MC4100 and the hyperpermeable variant NR698, having a deficient outer membrane. The NR698 strain, containing lptD4213/imp4213 mutation, was kindly provided by M. Grabowicz (Emory University School of Medicine, Rollins Research Center, Atlanta, GA, USA). The assay was performed in the same way as previously described for the antibacterial MIC assay.
# [9] = tested on: E. coli MC4100 (wild type, WT); assay: microbe, parasite or virus in culture; details: wild type
# Experimental: as §3, §4
# [10] = tested on: S. epidermidis RP62A (Se, ATCC 35984); assay: microbe, parasite or virus in culture; format: cell-based, Staphylococcus epidermidis; details: ATCC 35984, 24 h
# Method in brief: as §2
# [11] = tested on: S. aureus (Sa, ATCC 9144); assay: microbe, parasite or virus in culture; format: cell-based, Staphylococcus aureus; details: ATCC 9144, 24 h
# Method in brief: as §2
# [12] = tested on: C. glutamicum (Cg, ATCC 13032); assay: microbe, parasite or virus in culture; format: cell-based, Corynebacterium glutamicum; details: ATCC 13032, 24 h
# Method in brief: as §2
# [13] = tested on: P. aeruginosa (Pa, ATCC 27853); assay: microbe, parasite or virus in culture; format: cell-based, Pseudomonas aeruginosa; details: ATCC 27853, 24 h
# Method in brief: as §2
# [14] = tested on: B. subtilis (Bs, ATCC 23857); assay: microbe, parasite or virus in culture; format: cell-based, Bacillus subtilis; details: ATCC 23857, 24 h
# Method in brief: as §2
# [15] = tested on: E. coli (Ec, ATCC 25922); assay: microbe, parasite or virus in culture; format: cell-based, Escherichia coli; details: ATCC 25922, 24 h
# Method in brief: as §2
# [16] = tested on: Gram-negative bacterial strains (E. coli and P. aeruginosa); assay: Antibacterial MIC assay, Gram-negative strains together (range or geometric mean); format: cell-based; details: Table S3; MIC >256 set to 256
# Method in brief: as §2
Structure (SMILES),Antimicrobial Activity (MIC) Fungi Rh [1],Selectivity index (SI) G- [2],Selectivity index (SI) G+ [2],Selectivity index (SI) Fungi [2],"RBC Tox. (EC50), haemolytic activity [2]",GM of MIC G+ [3],GM (geometric mean of the MIC values against all bacterial strains) [4],GM of MIC Tot. bact. [4],Antimicrobial Activity (MIC) Fungi Ap [5],Antimicrobial Activity (MIC) Fungi Ca [6],GM of MIC Fungi [7],MIC E. coli NR698 (mutant) [8],MIC E. coli MC4100 (WT) [9],Antimicrobial Activity (MIC) Gram + Se [10],Antimicrobial Activity (MIC) Gram + Sa [11],Antimicrobial Activity (MIC) Gram + Cg [12],Antimicrobial Activity (MIC) Gram − Pa [13],Antimicrobial Activity (MIC) Gram + Bs [14],Antimicrobial Activity (MIC) Gram − Ec [15],GM of MIC G- [16],further results
"CCCCCCCC(=O)N[C@H]1CSSC[C@@H](C(=O)N[C@@H](CCCCN)C(=O)N[C@@H](CC(C)C)C(N)=O)NC(=O)[C@H](CCCCN)NC(=O)[C@H](Cc2c[nH]c3ccccc23)NC(=O)CNC(=O)CNC(=O)[C@@H]2CCCN2C(=O)[C@H](CCCCN)NC(=O)[C@H](CCCCN)NC(=O)CNC1=O [Peptide C8-cTurg-1, C8 -(CGKKPGGWKC)KL-NH2] (Octanoyl-CGKKPGGWKCKL-NH2; disulfide 1-10)",8 µg/mL,> 15,> 59,> 29,>942 µg/mL,16 µg/mL,25 µg/mL,25 µg/mL,64 µg/mL,64 µg/mL,32 µg/mL,8 µg/mL,16 µg/mL,32 µg/mL,128 µg/mL,4 µg/mL,128 µg/mL,4 µg/mL,32 µg/mL,64 µg/mL,SI (selectivity index = EC50/GM) [2]: >37
"CCCCCCCCCC(=O)N[C@H]1CSSC[C@@H](C(=O)N[C@@H](CCCCN)C(=O)N[C@@H](CC(C)C)C(N)=O)NC(=O)[C@H](CCCCN)NC(=O)[C@H](Cc2c[nH]c3ccccc23)NC(=O)CNC(=O)CNC(=O)[C@@H]2CCCN2C(=O)[C@H](CCCCN)NC(=O)[C@H](CCCCN)NC(=O)CNC1=O [Peptide C10-cTurg-1, C10 -(CGKKPGGWKC)KL-NH2] (Decanoyl-CGKKPGGWKCKL-NH2; disulfide 1-10)",4 µg/mL,> 60,> 239,> 47,>956 µg/mL,4 µg/mL,6 µg/mL,6 µg/mL,32 µg/mL,64 µg/mL,20 µg/mL,4 µg/mL,8 µg/mL,4 µg/mL,16 µg/mL,2 µg/mL,32 µg/mL,2 µg/mL,8 µg/mL,16 µg/mL,–
CC(C)C[C@H](NC(=O)[C@H](CCCCN)NC(=O)[C@@H]1CSSC[C@H](N)C(=O)NCC(=O)N[C@@H](CCCCN)C(=O)N[C@@H](CCCCN)C(=O)N[C@@H](Cc2c[nH]c3ccccc23)C(=O)N[C@@H](Cc2c[nH]c3ccccc23)C(=O)NCC(=O)N[C@@H](Cc2c[nH]c3ccccc23)C(=O)N[C@@H](CCCCN)C(=O)N1)C(N)=O [cTurg-2] (H-CGKKWWGWKCKL-NH2; disulfide 1-10; N-terminus assumed),32 µg/mL,> 16,> 92,> 33,>1045 µg/mL,11 µg/mL,20 µg/mL,20 µg/mL,32 µg/mL,32 µg/mL,32 µg/mL,8 µg/mL,16 µg/mL,16 µg/mL,32 µg/mL,4 µg/mL,64 µg/mL,8 µg/mL,64 µg/mL,64 µg/mL,SI (selectivity index = EC50/GM) [2]: >52
"CCCCCCCC(=O)N[C@H]1CSSC[C@@H](C(=O)N[C@@H](CCCNC(=N)N)C(=O)N[C@@H](CC(C)C)C(N)=O)NC(=O)[C@H](CCCNC(=N)N)NC(=O)[C@H](Cc2c[nH]c3ccccc23)NC(=O)[C@H](Cc2c[nH]c3ccccc23)NC(=O)CNC(=O)[C@H](Cc2c[nH]c3ccccc23)NC(=O)[C@H](CCCNC(=N)N)NC(=O)[C@H](CCCNC(=N)N)NC(=O)CNC1=O [Peptide C8-cTurg-6, C8- (CGRRWGWWRC)RL-NH2] (Octanoyl-CGRRWGWWRCRL-NH2; disulfide 1-10)",32 µg/mL,3,6,1,30 µg/mL,5 µg/mL,6 µg/mL,6 µg/mL,64 µg/mL,64 µg/mL,51 µg/mL,8 µg/mL,8 µg/mL,4 µg/mL,8 µg/mL,4 µg/mL,16 µg/mL,4 µg/mL,8 µg/mL,11 µg/mL,SI (selectivity index = EC50/GM) [2]: 5
